Kd and EC50 data for nine compounds are collected here from patent publication US20260083851A1 (AVILAR THERAPEUTICS, INC., priority 2022, published 2026).

Like-named read-outs stand apart in the source and are kept apart here. Starred links: 1 amine or outer side, 2 acyl side, 3 side chain; linkers in the order of their positions; H or OH if unused. Positions of bridges follow the written chain, without caps; N, C: chain ends. Non-standard residues stand in square brackets, D forms with d. Residues, ends and D or L forms follow the SMILES beside them. ξ: configuration not given here. *: point of attachment. X1 = O=C(CCOCC(COCCC(=O)NCCOCCOCCOCCOCC1OCC(Nc2cncc(C(F)(F)F)n2)C(O)C1O)NCC(=O)*)NCCOCCOCCOCCOCC1OCC(Nc2cncc(C(F)(F)F)n2)C(O)C1O; ξPro(4ξ-NH2) = O=C(C1CC(N[*:3])CN1[*:1])[*:2] Some results are limits rather than exact numbers.

One assay concerns the target IgG. In words: IgG SPR binding. The settings on record: second table, read-out: IgG KD.
Another assay deals with HepG2 cells. In words: Cellular uptake assay (high-content imaging). Type of assay: cell-based, human. Particulars: Homo sapiens, 100 nM AF488-labeled antibody, 6 hours at 37° C., the 25th table, read-out: Uptake EC50. From the text:
The cellular uptake assay is designed to measure compound-mediated cellular uptake of fluorescently labeled antibody following ternary complex formation with the ASGPR receptor and endocytosis of the entire complex into cells. The optimal concentration of compound will result in the maximum number of cells with intracellular antibody and is represented as the peak ratio of antibody-positive cells over the total number of cells. As with the ternary complex formation assay, too much or too little compound will result in suboptimal complex formation and fewer cells will have measurable intracellular fluorescence.
Human IgG (Sigma-Aldrich, 14506) was covalently labeled with Alexa Fluor 488 using the Alexa Fluor™ 488 Protein Labeling Kit (Thermo Fisher, A10235) following the manufacturer's instructions. HepG2 cells were plated in DMEM supplemented with 10% FBS at 5,000 cells per well in a 96-well microtiter plate and incubated for approximately 18 hours at 37° C./5% CO2. For studies using human IgG, 100 nM AF488-labeled human IgG antibodies and serial dilutions of IgG-based degrader (0.1% DMSO final concentration) were added to the cells and the mixture was incubated at 37° C. for 6 hours. For studies using DNP, 100 nM AF488-labeled DNP antibodies and serial dilutions of DNP-based degrader (0.1% DMSO final concentration) were added to the cells and the mixture was incubated at 37° C. for 6 hours. HepG2 cells were fixed in 100% methanol at −20° C. for 20 min, washed 3× with PBS, then stained with DAPI (Thermo, Cat #H3570). HepG2 cells were imaged for DAPI and Alexa Fluor 488 using the Operetta CLS, high-content analysis system (PerkinElmer). Data is presented as the ratio of the number of cells positive for hIgG or DNP (AF-488 fluorescence) over the total cell number (measured by DAPI).

In a further assay the target is T1, ASGPR (Homo sapiens, UniProt P07306).
T1 construct: biotin (biotinylated)
T1 sequence (P07306 1-291): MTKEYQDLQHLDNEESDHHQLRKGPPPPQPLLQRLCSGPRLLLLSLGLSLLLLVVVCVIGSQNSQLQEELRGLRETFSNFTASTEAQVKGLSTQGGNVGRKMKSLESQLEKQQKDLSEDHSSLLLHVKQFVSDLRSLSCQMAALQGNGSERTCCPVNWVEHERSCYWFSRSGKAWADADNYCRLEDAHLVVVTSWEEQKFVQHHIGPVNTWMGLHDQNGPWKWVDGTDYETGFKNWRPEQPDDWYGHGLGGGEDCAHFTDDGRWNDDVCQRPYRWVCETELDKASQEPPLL
The assay can be described thus: ASGPR SPR binding. Background: Surface plasmon resonance follows binding to a sensor surface in real time, without labels.

The target of assay [1] is T2, ASGPR receptor on HepG2 cells (ternary complex with AF488-labeled antibody) (Homo sapiens, UniProt P07306).
T2 construct: host or cells: HepG2
T2 sequence (P07306 1-291): T1 sequence (P07306 1-291)
T2 sequence (P07307 1-311 partner): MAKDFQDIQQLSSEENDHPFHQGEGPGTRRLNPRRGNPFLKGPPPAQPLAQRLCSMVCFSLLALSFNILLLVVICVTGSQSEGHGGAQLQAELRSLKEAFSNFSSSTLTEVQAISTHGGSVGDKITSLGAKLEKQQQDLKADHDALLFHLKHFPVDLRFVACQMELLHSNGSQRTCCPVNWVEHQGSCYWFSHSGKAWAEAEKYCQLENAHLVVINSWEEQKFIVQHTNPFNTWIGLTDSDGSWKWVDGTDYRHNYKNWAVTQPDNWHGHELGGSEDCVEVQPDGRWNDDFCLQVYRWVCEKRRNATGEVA
In words: Ternary complex formation assay (flow cytometry, cell-associated AF488 fluorescence). Type of assay: cell-based. The procedure:
Human IgG (Sigma-Aldrich, 14506) was covalently labeled with Alexa Fluor 488 using the Alexa Fluor™ 488 Protein Labeling Kit (Thermo Fisher, A10235) following the manufacturer's instructions. HepG2 cells (ATCC, HB-8065) were cultured to about 70% confluence and harvested by trypsinization. Single cell suspensions of HepG2 cells were plated in 96 well plates at 1×10^5 cells/well in cell culture media (DMEM supplemented with 10% FBS) and placed at 4° C. For studies using human IgG, cells were incubated with 100 nM AF488-labeled anti-human IgG and serial dilutions of IgG-based degrader for 1 hour at 4° C. For studies using DNP, cells were incubated with 100 nM AF488-labeled polyclonal rabbit anti-dinitrophenyl (DNP) antibodies (ThermoFisher) and serial dilutions of DNP-based degrader for 1 hour at 4° C. After washing once with ice-cold PBS containing 0.1% BSA and 0.1% sodium azide, cells were resuspended in 150 uL PBS+0.1% BSA and cell-associated AF488 fluorescence was measured by flow cytometry using the iQue® Screener PLUS Flow Cytometer (IntelliCyt). […]
On the technique in general: In flow cytometry, cells or beads pass a laser one at a time.

The mark [2] stands for this setting: read-out: ASGPR KD, second table.
The mark [3] stands for this setting: read-out: TCF EC50, 100 nM AF488-labeled antibody, 1 hour at 4° C., the 25th table, class symbols.
Setting [4] is: second table, read-out: ASGPR KD.
Where [5] appears, read: 100 nM AF488-labeled antibody, 1 hour at 4° C., the 25th table, class symbols, read-out: TCF EC50.

Consider `CC(C)C[C@@H]1NC(=O)[C@H](Cc2cnc[nH]2)NC(=O)[C@H](Cc2c[nH]c3ccccc23)NC(=O)[C@H](C)NC(=O)[C@@H]2CSSC[C@H](NC(=O)[C@H](Cc3c[nH]c4ccccc34)NC(=O)[C@H](C(C)C)NC(=O)[C@H](CC(C)C)NC(=O)[C@H](CCC(=O)O)NC(=O)CNC1=O)C(=O)N[C@@H]([C@@H](C)O)C(=O)N1CCC[C@@H]1C(=O)N1C[C@@H](NC(=O)c3ccc4c(c3)C(=O)c3cc(C(=O)NC[C@H]5OC[C@H](Nc6cncc(C(F)(F)F)n6)[C@@H](O)[C@H]5O)ccc3-4)C[C@H]1C(=O)N[C@@H](CC(=O)O)C(=O)N2` [compound 40], for which the Kd on IgG is less than 100 nM. In addition, the EC50 with HepG2 cells (class symbols) fell in the range of 100 to 500 nM.
Take `CC(C)CC1NC(=O)C(Cc2cnc[nH]2)NC(=O)C(Cc2c[nH]c3ccccc23)NC(=O)C(C)NC(=O)C2CSSCC(NC(=O)C(Cc3c[nH]c4ccccc34)NC(=O)C(C(C)C)NC(=O)C(CC(C)C)NC(=O)C(CCC(=O)N(C)C)NC(=O)CNC1=O)C(=O)NC(C(C)O)C(=O)N1CCCC1C(=O)N1CC(NC(=O)CNC(COCCC(=O)NCCOCCOCCOCCOCC3OCC(Nc4cncc(C(F)(F)F)n4)C(O)C3O)COCCC(=O)NCCOCCOCCOCCOCC3OCC(Nc4cncc(C(F)(F)F)n4)C(O)C3O)CC1C(=O)NC(CC(N)=O)C(=O)N2` (stereo not shown) [compound 73] (cyclo(GE(NMe2)LVWCTP[ξPro(4ξ-NH2)](X1)NCAWHL); disulfide 6-11; configuration not given here): the Kd at IgG and at ASGPR (setting [2]) was less than 100 nM each time. In assay [1] (setting [3]), the half-maximal effective concentration (EC50) is less than 100 nM.
As for `CC(C)CC1NC(=O)C(C)NC(=O)CNC(=O)C(CC(C)C)NC(=O)C(Cc2cnc[nH]2)NC(=O)C(Cc2c[nH]c3ccccc23)NC(=O)C(C)NC(=O)C2CSSCC(NC(=O)C(Cc3c[nH]c4ccccc34)NC(=O)C(C(C)C)NC1=O)C(=O)NC(C(C)O)C(=O)N1CCCC1C(=O)N1CC(NC(=O)CNC(COCCC(=O)NCCOCCOCCOCCOCC3OCC(Nc4cncc(C(F)(F)F)n4)C(O)C3O)COCCC(=O)NCCOCCOCCOCCOCC3OCC(Nc4cncc(C(F)(F)F)n4)C(O)C3O)CC1C(=O)NC(CC(N)=O)C(=O)N2` (stereo not shown) [compound 74] (cyclo(GALVWCTP[ξPro(4ξ-NH2)](X1)NCAWHL); disulfide 6-11; configuration not given here), the Kd at IgG and on ASGPR (setting [2]) was less than 100 nM in each case. For the same compound, in assay [1] (setting [3]), the half-maximal effective concentration (EC50) was less than 100 nM.
On to `CC(C)CC1NC(=O)C(Cc2cnc[nH]2)NC(=O)C(Cc2c[nH]c3ccccc23)NC(=O)C(C)NC(=O)C2CSSCC(NC(=O)C(Cc3c[nH]c4ccccc34)NC(=O)C(C(C)C)NC(=O)C(CC(C)C)NC(=O)C(CCC(=O)O)NC(=O)CNC1=O)C(=O)NC(C(C)O)C(=O)N1CCCC1C(=O)N1CC(NC(=O)CCCc3cn(CCCCCC(=O)NC(COCCC(=O)NCCOCC4OCC(Nc5nccc(C(F)(F)F)n5)C(O)C4O)COCCC(=O)NCCOCC4OCC(Nc5nccc(C(F)(F)F)n5)C(O)C4O)nn3)CC1C(=O)NC(CC(=O)O)C(=O)N2` (stereo not shown) [compound 76], for which the Kd on IgG and at ASGPR (setting [4]) was less than 100 nM each time. For the same compound, the EC50 in assay [1] (setting [5]) was less than 100 nM.
In the case of `CC(C)CC1NC(=O)C(Cc2cnc[nH]2)NC(=O)C(Cc2c[nH]c3ccccc23)NC(=O)C(C)NC(=O)C2CSSCC(NC(=O)C(Cc3c[nH]c4ccccc34)NC(=O)C(C(C)C)NC(=O)C(CC(C)C)NC(=O)C(CCC(=O)O)NC(=O)CNC1=O)C(=O)NC(C(C)O)C(=O)N1CCCC1C(=O)N1CC(NC(=O)CCCc3cn(CC4OCC(Nc5cncc(C(F)(F)F)n5)C(O)C4O)nn3)CC1C(=O)NC(CC(=O)O)C(=O)N2` (stereo not shown) [compound 78], the Kd on IgG and at ASGPR (setting [4]) was less than 100 nM each time. Moreover, the EC50 in assay [1] (setting [3]) was less than 100 nM.
Take `COC1O[C@H](Cn2cc(CCCC(=O)N[C@H]3C[C@H]4C(=O)N[C@@H](CC(=O)O)C(=O)N[C@H]5CSSC[C@H](NC(=O)[C@H](Cc6c[nH]c7ccccc67)NC(=O)[C@H](C(C)C)NC(=O)[C@H](CC(C)C)NC(=O)[C@H](CCC(=O)O)NC(=O)CNC(=O)[C@H](CC(C)C)NC(=O)[C@H](Cc6cnc[nH]6)NC(=O)[C@H](Cc6c[nH]c7ccccc67)NC(=O)[C@H](C)NC5=O)C(=O)N[C@@H]([C@@H](C)O)C(=O)N5CCC[C@@H]5C(=O)N4C3)nn2)[C@H](O)[C@H](O)[C@H]1NC(C)=O` (stereo partly shown) [compound 80]: the half-maximal effective concentration (EC50) in the assay with HepG2 cells (numeric bounds, nM from footnote) was greater than 10000 nM; in assay [1] (100 nM AF488-labeled antibody, 1 hour at 4° C., the 25th table, numeric bounds, nM from footnote, read-out: TCF EC50), greater than 4360 nM.
With `CC(C)CC1NC(=O)C(Cc2cnc[nH]2)NC(=O)C(Cc2c[nH]c3ccccc23)NC(=O)C(C)NC(=O)C2CSSCC(NC(=O)C(Cc3c[nH]c4ccccc34)NC(=O)C(C(C)C)NC(=O)C(CC(C)C)NC(=O)C(CCC(=O)O)NC(=O)CNC1=O)C(=O)NC(C(C)O)C(=O)N1CCCC1C(=O)N1CC(NC(=O)CCOCCOCCOCCOCCNC(=O)CCCc3cn(CCCCCC(=O)NC(COCCC(=O)NCCOCCOCCOCCOCC4OCC(Nc5cncc(C(F)(F)F)n5)C(O)C4O)COCCC(=O)NCCOCCOCCOCCOCC4OCC(Nc5cncc(C(F)(F)F)n5)C(O)C4O)nn3)CC1C(=O)NC(CC(=O)O)C(=O)N2` (stereo not shown) [compound 82], the dissociation constant Kd at IgG and on ASGPR (setting [4]) was less than 100 nM in each case. Moreover, the EC50 in assay [1] (setting [5]) is less than 100 nM.
As to `CC(=O)NC1C(OCCOCCOCCOCCNC(=O)CCOCC(COCCC(=O)NCCOCCOCCOCCOC2OC(CO)C(O)C(O)C2NC(C)=O)(COCCC(=O)NCCOCCOCCOCCOC2OC(CO)C(O)C(O)C2NC(C)=O)NC(=O)CCCCCn2cc(CCCC(=O)NCCOCCOCCOCCOCCC(=O)NC3CC4C(=O)NC(CC(=O)O)C(=O)NC5CSSCC(NC(=O)C(Cc6c[nH]c7ccccc67)NC(=O)C(C(C)C)NC(=O)C(CC(C)C)NC(=O)C(CCC(=O)O)NC(=O)CNC(=O)C(CC(C)C)NC(=O)C(Cc6cnc[nH]6)NC(=O)C(Cc6c[nH]c7ccccc67)NC(=O)C(C)NC5=O)C(=O)NC(C(C)O)C(=O)N5CCCC5C(=O)N4C3)nn2)OC(CO)C(O)C1O` (stereo not shown) [compound 87], the dissociation constant (Kd) at IgG is less than 100 nM; at ASGPR (setting [2]), greater than 1000 nM. Further, in assay [1] (setting [3]), the EC50 was greater than 1000 nM.
With `CC(C)CC1NC(=O)C(Cc2cnc[nH]2)NC(=O)C(Cc2c[nH]c3ccccc23)NC(=O)C(C)NC(=O)C2CSSCC(NC(=O)C(Cc3c[nH]c4ccccc34)NC(=O)C(C(C)C)NC(=O)C(CC(C)C)NC(=O)C(CCC(=O)O)NC(=O)CNC1=O)C(=O)NC(C(C)O)C(=O)N1CCCC1C(=O)N1CC(NC(=O)CCOCCOCCOCCOCCNC(=O)CCCc3cn(CCCCCC(=O)NC(COCCC(=O)NCCOCCOCCOCCOCC4OCC(Nc5nccc(C(F)(F)F)n5)C(O)C4O)(COCCC(=O)NCCOCCOCCOCCOCC4OCC(Nc5nccc(C(F)(F)F)n5)C(O)C4O)COCCC(=O)NCCOCCOCCOCCOCC4OCC(Nc5nccc(C(F)(F)F)n5)C(O)C4O)nn3)CC1C(=O)NC(CC(=O)O)C(=O)N2` (stereo not shown) [compound 88], the Kd on IgG and at ASGPR (setting [4]) was less than 100 nM throughout. The EC50 in assay [1] (setting [5]) is less than 100 nM.

One may read the Kd as the equilibrium constant for the complex coming apart. Broadly, the EC50 is the concentration needed to bring the measured effect to its halfway point.
